Data on 16 molecules can be found in patent US20230234936A1, “COMPOUND FOR TARGETING AND DEGRADING PROTEIN, AND PREPARATION METHOD THEREFOR AND USE THEREOF” (SHANGHAI LEADINGTAC PHARMACEUTICAL CO., LTD., priority 2020, published 2023).

The target in one assay is T1, IRAK4 kinase (Homo sapiens, UniProt Q9NWZ3).
T1 sequence (Q9NWZ3 1-460): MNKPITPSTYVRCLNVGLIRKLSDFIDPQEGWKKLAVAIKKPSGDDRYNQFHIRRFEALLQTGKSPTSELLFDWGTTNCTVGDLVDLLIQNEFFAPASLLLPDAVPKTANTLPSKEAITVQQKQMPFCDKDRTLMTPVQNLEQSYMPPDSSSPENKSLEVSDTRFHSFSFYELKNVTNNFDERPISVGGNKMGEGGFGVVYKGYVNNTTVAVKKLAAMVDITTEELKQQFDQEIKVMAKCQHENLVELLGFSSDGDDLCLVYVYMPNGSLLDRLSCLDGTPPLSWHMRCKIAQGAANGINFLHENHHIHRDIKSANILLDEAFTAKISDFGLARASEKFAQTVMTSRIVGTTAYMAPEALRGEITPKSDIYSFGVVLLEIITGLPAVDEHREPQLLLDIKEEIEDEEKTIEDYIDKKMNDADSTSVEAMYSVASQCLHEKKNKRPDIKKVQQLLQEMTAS
As to the kind of experiment: IRAK4 kinase activity test (KinEASE-STK S1 HTRF kit). In kind it is biochemical. To be noted: 2.5 nM kinase, 1 μM biotinylated polypeptide substrate, 7 μM ATP, 37° C. 120 min. Here is the method:
KinEASE-STK S1 serine/threonine kinase kit (Cisbio) was used to detect the inhibitory effect of the compound on IRAK4 kinase activity. The specific method was: the compound was dissolved in dimethyl sulfoxide, and then it was diluted with the buffer solution of the kit by equal gradient to make the final concentration range of the tested compound in the reaction system 10000 nM-0.038 nM, then 2.5 nM kinase, 1 μM biotinylated polypeptide substrate and 7 μM adenosine triphosphate (ATP) were added in sequence and incubated at 37° C. for 120 min. Subsequently, anti-phosphorylated serine/threonine antibody coupled with europium element compound and modified XL665 streptavidin were added to the reaction system to terminate the reaction. After incubating at room temperature for 1 h, the fluorescence intensity of each well at the emission wavelength of 620 nm and 665 nm and the excitation wavelength of 337 nm was determined in HTRF mode on the microplate reader EnVision(PerkinElmer), the ratio value was calculated using the formula Ratio=(665 nm/620 nm)×10^4. By comparing with the fluorescence intensity ratio of the control group, the inhibition rate of the compound at each concentration was calculated, and then the IC50 value of the compound was obtained by fitting the nonlinear curve with the logarithmic concentration-inhibition rate by GraphPad Prism 7.
On the technique in general: TR-FRET usually uses a lanthanide donor and a delayed reading to cut background.
In the case of `COc1cc2nn(C3CCN(CCOCCOc4ccc5c(c4)C(=O)N(C4CCC(=O)NC4=O)C5=O)CC3)cc2cc1NC(=O)c1cccc(C(F)(F)F)n1` (centres unmarked) [Control group 1, N-(2-(1-(2-(2-((2-(2,6-dioxopiperidin-3-yl)-1,3-dioxoisoindol-5-yl)oxy)ethoxy)ethyl)piperidin-4-yl)-6-methoxy-2H-indazol-5-yl)-6-(trifluoromethyl) pyridinecarboxamide, reference compound], the half-maximal inhibitory concentration (IC50) (as a rule, the midpoint of a concentration-inhibition curve) was 44.2 nM. `COc1cc2nn(C3CCN(CCCCCNC(=O)c4ccc(OC)c(N5CCC(=O)NC5=O)c4)CC3)cc2cc1NC(=O)c1cccc(C(F)(F)F)n1` [Example 4, N-(2-(1-(5-(3-(2,4-dioxotetrahydropyrimidin-1 (2H)-yl)-4-methoxybenzamido)pentyl)piperidin-4-yl)-6-methoxy-2H-indazol-5-yl)-6-(trifluoromethyl) pyridinecarboxamide] came in with an IC50 of 12.2 nM. Regarding `COc1cc2nn(C3CCN(CCOCCNC(=O)c4ccc(OC)c(N5CCC(=O)NC5=O)c4)CC3)cc2cc1NC(=O)c1cccc(C(F)(F)F)n1` [Example 5, N-(2-(1-(2-(2-(3-(2,4-dioxotetrahydropyrim-idin-1 (2H)-yl)-4-methoxybenz-amido)ethoxy)ethyl)piperidin-4-yl)-6-me-thoxy-2H-indazol-5-yl)-6-(trifluoromethyl) pyridinecarboxamide], the IC50 came to 9.1 nM.

In the case of `COc1cc2nn(C3CCN(CCOCCOCCNC(=O)c4ccc(OC)c(N5CCC(=O)NC5=O)c4)CC3)cc2cc1NC(=O)c1cccc(C(F)(F)F)n1` [Example 8, N-(2-(1-(2-(2-(2-(3-(2,4-dioxotetrahydropyrimidin-1 (2H)-yl)-4-methoxybenz-amido)ethoxy)ethoxy)ethyl)piperidin-4-yl)-6-methoxy-2H-indazol-5-yl)-6-(trifluoro-methyl) pyridin-carboxamide], the IC50 was found to be 10.5 nM. Same read-out and setting: the same measure for `COc1ccc(C(=O)N2CC3(CCN(CCN4CCC(n5cc6cc(NC(=O)c7cccc(C(F)(F)F)n7)c(C(C)(C)O)cc6n5)CC4)CC3)C2)cc1N1CCC(=O)NC1=O` [Example 13, N-(2-(1-(2-(2-(3-(2,4-dioxotetrahydropyrimidin-1 (2H)-yl)-4-methoxybenzoyl)-2,7-diazaspiro [3.5]non-7-yl)ethyl)piperidin-4-yl)-6-(2-hydroxyprop-2-yl)-2H-indazol-5-yl)-6-(trifluoro-methyl) pyridinecarboxamide]: 7.9 nM; for `COc1cc2nn(C3CCN(CCN4CCN(C(=O)c5ccc(OC)c(N6CCC(=O)NC6=O)c5)CC4)CC3)cc2cc1NC(=O)c1cccc(C(F)(F)F)n1` [Example 14, N-(2-(1-(2-(4-(3-(2,4-dioxotetrahydropyrimidin-1 (2H)-yl)-4-methoxybenzoyl)piperazin-1-yl)ethyl)piperidin-4-yl)-6-methoxy-2H-indazol-5-yl)-6-(trifluoromethyl) pyridinecarboxamide]: 6.9 nM.

On to `COc1cc2nn(C3CCN(CCN4CC5(CCN(C(=O)c6ccc(OC)c(N7CCC(=O)NC7=O)c6)CC5)C4)CC3)cc2cc1NC(=O)c1cccc(C(F)(F)F)n1` [Example 15, N-(2-(1-(2-(7-(3-(2,4-dioxo-tetrahydropyrim-idin-1 (2H)-yl)-4-methoxy-benzoyl)-2,7-diazaspiro [3.5]non-2-yl)ethyl)piperidin-4-yl)-6-methoxy-2H-in-dazol-5-yl)-6-(tri-fluoromethyl) pyridinecarbox-amide], for which half-maximal inhibition (IC50) was put at 6 nM. For the molecule `CCOc1ccc(C(=O)N2CCC3(CCC(CCN4CCC(n5cc6cc(NC(=O)c7cccc(C(F)(F)F)n7)c(C(C)(C)O)cc6n5)CC4)CC3)CC2)cc1N1CCC(=O)NC1=O` [Example 24], inhibition was half-maximal at 34.6 nM (IC50). Same read-out and setting: the same measure for `CC(C)(O)c1cc2nn(C3CCN(CCCC4CCN(C(=O)c5ccc(Cl)c(N6CCC(=O)NC6=O)c5)CC4)CC3)cc2cc1NC(=O)c1cccc(C(F)(F)F)n1` [Example 29]: 8.6 nM; for `CC(C)(O)c1cc2nn(C3CCN(CCC4CCC5(CC4)CCN(C(=O)c4ccc(OC(F)(F)F)c(N6CCC(=O)NC6=O)c4)CC5)CC3)cc2cc1NC(=O)c1cccc(C(F)(F)F)n1` [Example 37]: 30.5 nM; for `CC(C)(O)c1cc2nn(C3CCN(CCC4CCC5(CC4)CCN(C(=O)c4ccc(C(F)(F)F)c(N6CCC(=O)NC6=O)c4)CC5)CC3)cc2cc1NC(=O)c1cccc(C(F)(F)F)n1` [Example 38, N-(2-(1-(2-(3-(3-(2,4-dioxotetrahydro-pyrimidin-1 (2H)-yl)-4-(trifluoro-methyl)benzoyl)-3-azaspiro[5.5]undec-9-yl)ethyl)piperidin-4-yl)-6-(2-hydroxyprop-2-yl)-2H-indazol-5-yl)-6-(trifluoro-methyl) pyridinecarbox-amide]: 34.5 nM. As for `COc1cc2nn([C@H]3CC[C@H](CN(C)CCC4CCN(C(=O)c5ccc(F)c(C6CCC(=O)NC6=O)c5)CC4)CC3)cc2cc1NC(=O)c1cccc(C(F)(F)F)n1` (some centres unmarked) [Example 52], the half-inhibitory concentration (IC50) was found to be 9.2 nM. `COc1cc2nn(C3CCC4(CC3)CCN(CC3CCN(C(=O)c5ccc(Cl)c(N6CCC(=O)NC6=O)c5)CC3)CC4)cc2cc1NC(=O)c1cccc(C(F)(F)F)n1` [Example 57, N-(2-(3-((1-(4-chloro-3-(2,4-dioxotetrahydro-pyrimidin-1 (2H)-yl)benzoyl)piperidin-4-yl)methyl)-3-azaspiro [5.5]undec-9-yl)-6-methoxy-2H-inda-zol-5-yl)-6-(triflu-oromethyl) pyridinecarbox-amide]: the IC50 stood at 3.8 nM. For the molecule `COc1cc2nn([C@H]3CC[C@@H](N4CCC5(CCN(C(=O)c6ccc(Cl)c(N7CCC(=O)NC7=O)c6)CC5)CC4)CC3)cc2cc1NC(=O)c1cccc(C(F)(F)F)n1` [Example 59, N-(2-((1s,4s)-4-(9-(4-chloro-3-(2,4-dioxotetrahydro-pyrimidin-1 (2H)-yl)benzoyl)-3,9-diazaspiro[5.5]undec-3-yl)cyclohexyl)-6-methoxy-2H-inda-zol-5-yl)-6-(trifluoro-methyl) pyridinecarbox-amide], it took 11 nM to reach half-maximal inhibition (IC50).

Molecule `O=C1CCN(c2cc(C(=O)N3CCC4(CCC(CN5CCC(n6cc7cc(NC(=O)c8cccc(C(F)(F)F)n8)c(OC(F)(F)F)cc7n6)CC5)CC4)CC3)ccc2Cl)C(=O)N1` [Example 61, N-(2-(1-((3-(4-chloro-3-(2,4-dioxotetrahydro-pyrimidin-1 (2H)-yl)benzoyl)-3-azaspiro [5.5]undec-9-yl)methyl)piperidin-4-yl)-6-(trifluoromethoxy)-2H-indazol-5-yl)-6-(trifluoro-methyl) pyridinecarbox-amide] yielded an IC50 of 128 nM.

Molecule `CN(C[C@H]1CC[C@H](n2cc3cc(NC(=O)c4cccc(C(F)(F)F)n4)c(C(C)(C)O)cc3n2)CC1)C1CCC2(CC1)CCN(C(=O)c1ccc(Cl)c(N3CCC(=O)NC3=O)c1)CC2` [Example 63] came in with an IC50 of 4.4 nM.

In a further assay the target is T2, IRAK4 protein in THP-1 cells (Homo sapiens, UniProt Q9NWZ3).
T2 construct: endogenous in cells; host or cells: THP-1
T2 sequence (Q9NWZ3 1-460): T1 sequence (Q9NWZ3 1-460)
As to the kind of experiment: Degradation of IRAK4 in THP-1 cells (Western blot). In kind it is cell-based. Particulars: 24 hours, compound 1-3000 nM. Here is the method:
Each well of the 24-well cell culture plate was inoculated with 0.95 mL THP-1 cells (stem cell bank of Chinese academy of sciences) with a cell density of 5×10^5 cells/well. The cell plate was placed in a 5% carbon dioxide incubator and cultured overnight at 37° C., then 50 μL compound in dimethyl sulfoxide was added. The final concentration of the compound was in the range of 1-3000 nM. After continuous cultivation for 24 hours, the cells were collected into a 1.5 mL centrifuge tube, centrifuged at 1000 rpm and 4° C. for 5 minutes. Cell precipitation was cleaned twice with 1-DPBS, resuspended cells were lysed with 200 μL lysate (cell lysate was Western and IP cell lysate (Beyotime), supplemented with 1 mM mixture of phenylmethylsulfonyl fluoride and protease inhibitor (Beyotime)), left on ice for 30 minutes, then centrifuged at 14000 g at 4° C. for 10 minutes, and the supernatant was taken to detect IRAK4 protein level by Western blot.
Western blot method: The total protein concentration in the supernatant of cell lysis was determined by BCA protein quantitative kit (Tiangen). According to the concentration of total protein detected by BCA, the supernatant was adjusted to 0.2 μg/μL with PBS and 5× SDS-PAGE protein loading buffer (Beyotime), bathed in water at 100° C. for 10 minutes, then placed in ice bath for 5 minutes, centrifuged at 14000 g and 4° C. for 5 minutes, and then collected as WB loading sample. Prefabricated glue (KeyGEN) was used for protein electrophoresis with a loading amount of 10 μL (total protein 2 μg). After Tris-MOPS-SDS electrophoresis solution (Adamas), 120V constant pressure electrophoresis was performed. After electrophoresis, the protein on the adhesive strip was transferred to PVDF membrane with a constant current of […] for 50 minutes. After the membrane was transferred, the membrane was placed in 1×QuickBlock blocking buffer (Beyotime) and incubated for 30 minutes at room temperature. After blocking, PVDF membranes were incubated with IRAK4 primary antibody (Abcam) overnight at 4°, the membranes were washed with TBST buffer (2.4 g Tris, 8.8 g NaCl, 1.5 mL Tween 20, pH adjusted to 7.4, constant volume to 1 L) for 30 minutes, incubated with secondary antibody (Abcam) for 2 hours at room temperature, finally incubated with Clarity Western ECL Substrate(BIO-RAD) for 5 minutes for luminescence development, chemiluminescence imaging system (Clinx, chemiScope 6200 Touch) for development and protein mapping photography. The protein map was analyzed by Clinx chemiluminescence analysis software for grayscale values. Using the formula: grayscale correction value=(target protein grayscale value/corresponding internal reference grayscale value)×10^3, the grayscale correction value of each sample was calculated. The degradation rate was calculated by comparing with the grayscale correction value of the control group. Furthermore, DC50 and Dmax values of the compound were obtained by the nonlinear curve fitting with the logarithmic concentration-inhibition rate by GraphPad Prism 7.
(In western blotting, separated proteins are transferred to a membrane and probed.)
As for `COc1cc2nn(C3CCN(CCOCCOc4ccc5c(c4)C(=O)N(C4CCC(=O)NC4=O)C5=O)CC3)cc2cc1NC(=O)c1cccc(C(F)(F)F)n1` (centres unmarked) [Control group 1, N-(2-(1-(2-(2-((2-(2,6-dioxopiperidin-3-yl)-1,3-dioxoisoindol-5-yl)oxy)ethoxy)ethyl)piperidin-4-yl)-6-methoxy-2H-indazol-5-yl)-6-(trifluoromethyl) pyridinecarboxamide, reference compound], the 50% degradation concentration (DC50) – broadly, the concentration at which degradation of the target reaches its halfway point – came to 38.1 nM.
